Assay results taken from PubChem BioAssay (NCI).
“And” between values parts separate entries of the source, which are not always exact repeats. Equal entries are not always repeated.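 Five compound concentrations were applied to cells in 96-well plates for 48 hours; endpoints were derived by simple linear interpolation of the resulting dose-response curve. GI50: concentration for 50% inhibition of growth. Definition used: TGI = concentration required for complete inhibition of growth.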

Legend:
Test in all cases: DTP human tumour cell line panel, 48 h
SF-295 CNS = test system: SF-295 CNS
UACC-62 melanoma = test system: UACC-62 melanoma
PC-3 prostate = test system: PC-3 prostate
SNB-19 CNS = test system: SNB-19 CNS
HT29 colon = test system: HT29 colon
HOP-92 NSCLC = test system: HOP-92 NSCLC
HS 578T breast = test system: HS 578T breast
IGROV1 ovarian = test system: IGROV1 ovarian
HCC-2998 colon = test system: HCC-2998 colon
SW-620 colon = test system: SW-620 colon

## CCOc1ccc2nc(-c3cccc(OCC(=O)NC(C)C)c3)nc(Nc3ccc(-c4cn[nH]c4)cc3)c2c1
SF-295 CNS
  GI50: 711 nM
  TGI: 3.01 µM
UACC-62 melanoma
  GI50: 1210 nM
  TGI: 4.16 µM
PC-3 prostate
  GI50: 348 nM
  TGI: 2 µM
SNB-19 CNS
  GI50: 0.598 µM
  TGI: 3.76 µM
HT29 colon
  GI50: 751 nM
  TGI: 5.09 µM
HOP-92 NSCLC
  GI50: 452 nM
  TGI: 3.29 µM
HS 578T breast
  GI50: 132 nM
  TGI: 1.72 µM
IGROV1 ovarian
  GI50: 0.927 µM
  TGI: 7.4 µM
HCC-2998 colon
  GI50: 1.45 µM
  TGI: 7.91 µM
SW-620 colon
  GI50: 1.35 µM
  TGI: 5.99 µM

## O=CC(Br)C(Br)c1ccccc1 (configuration not stated)
SF-295 CNS
  GI50: 12800 nM
  TGI: 27.7 µM
UACC-62 melanoma
  GI50: 1790 nM
  TGI: 3.74 µM
PC-3 prostate
  GI50: 2390 nM
  TGI: 6.75 µM
SNB-19 CNS
  GI50: 12.8 µM
  TGI: 26.2 µM
HT29 colon
  GI50: 1710 nM
  TGI: 3.19 µM
HOP-92 NSCLC
  GI50: 1520 nM
  TGI: 2.89 µM
HS 578T breast
  GI50: 8810 nM
  TGI: 43.9 µM
IGROV1 ovarian
  GI50: 11 µM
  TGI: 26 µM
HCC-2998 colon
  GI50: 15.1 µM
  TGI: 29.4 µM
SW-620 colon
  GI50: 0.776 µM
  TGI: 2.33 µM

## CSc1n(Cc2ccc3ccccc3c2)c(C)c[n+]1Cc1ccc2ccccc2c1
SF-295 CNS
  GI50: 1340 nM
  TGI: 2.69 µM
UACC-62 melanoma
  GI50: 519 nM
  TGI: 1.82 µM
PC-3 prostate
  GI50: 563 nM
  TGI: 2.17 µM
SNB-19 CNS
  GI50: 0.51 µM
  TGI: 1.72 µM
HT29 colon
  GI50: 431 nM
  TGI: 1.6 µM
HOP-92 NSCLC
  GI50: 255 nM
  TGI: 1.28 µM
HS 578T breast
  GI50: 1020 nM
  TGI: 2.7 µM
IGROV1 ovarian
  GI50: 0.49 µM
  TGI: 1.8 µM
HCC-2998 colon
  GI50: 0.535 µM
  TGI: 1.82 µM
SW-620 colon
  GI50: 0.852 µM
  TGI: 2.26 µM

## O=C(O)C1C(=O)Oc2c(cccc2[N+](=O)[O-])C1O (configuration not stated)
SF-295 CNS
  TGI: > 100 µM
UACC-62 melanoma
  TGI: > 100 µM
PC-3 prostate
  TGI: > 100 µM
SNB-19 CNS
  TGI: > 100 µM
HT29 colon
  TGI: > 100 µM
HOP-92 NSCLC
  TGI: > 100 µM
HS 578T breast
  TGI: > 100 µM
IGROV1 ovarian
  TGI: > 100 µM
HCC-2998 colon
  TGI: > 100 µM
SW-620 colon
  TGI: > 100 µM

## CCOC(=O)NC1=C(N2CC2)C(=O)C(NC(=O)OCC)=C(N2CC2)C1=O
SF-295 CNS
  GI50: 1860 nM
  TGI: 25 µM and 23.3 µM and 31.4 µM
UACC-62 melanoma
  GI50: 1750 nM
  TGI: 12 µM and 4.37 µM and 1.74 µM
PC-3 prostate
  TGI: 16.2 µM
SNB-19 CNS
  GI50: 6.66 µM
  TGI: 25 µM and 30.2 µM
HT29 colon
  GI50: 14500 nM and 9070 nM
  TGI: 25 µM and 47.3 µM and 70.2 µM
HOP-92 NSCLC
  GI50: 6180 nM
  TGI: 16.1 µM and 11.2 µM and 10.1 µM
HS 578T breast
  TGI: 24.7 µM
IGROV1 ovarian
  GI50: 8.21 µM and 7.5 µM
  TGI: 25 µM and 18.1 µM and 30.6 µM
HCC-2998 colon
  GI50: 20 µM and 10.3 µM
  TGI: 25 µM and 23.2 µM and 35 µM
SW-620 colon
  GI50: 5.99 µM and 5.69 µM
  TGI: 24.6 µM and 26.1 µM and 19.2 µM

## Nc1nc2ccc3[nH]ncc3c2c2c1CCCC2
SF-295 CNS
  GI50: 2490 nM
  TGI: 10.5 µM
UACC-62 melanoma
  GI50: 1430 nM
  TGI: 3.47 µM
PC-3 prostate
  GI50: 2330 nM
  TGI: 10.1 µM
SNB-19 CNS
  GI50: 2.64 µM
  TGI: 10.8 µM
HT29 colon
  GI50: 1880 nM
  TGI: 11.8 µM
HOP-92 NSCLC
  GI50: 2090 nM
  TGI: 7.79 µM
HS 578T breast
  GI50: 1950 nM
  TGI: 6.8 µM
IGROV1 ovarian
  GI50: 2.29 µM
  TGI: 11.2 µM
HCC-2998 colon
  GI50: 1.61 µM
  TGI: 3.62 µM
SW-620 colon
  GI50: 1.55 µM
  TGI: 10 µM

## O=C(NCCCCCCNC(=O)n1cc(F)c(=O)[nH]c1=O)NCCCOCCOCCOCCOCCOCCOCCOCCOCCOCCOCCOCCOCCOCCOCCOCCOCCOCCOCCOCCOCCOCCCNC(=O)C(O)C(O)C(OC1OC(CO)C(O)C(O)C1O)C(O)CO (configuration not stated)
SF-295 CNS
  TGI: > 100 µM
UACC-62 melanoma
  TGI: > 100 µM
PC-3 prostate
  TGI: > 100 µM
SNB-19 CNS
  TGI: > 100 µM
HT29 colon
  TGI: > 100 µM
HOP-92 NSCLC
  TGI: > 100 µM
HS 578T breast
  TGI: > 100 µM
IGROV1 ovarian
  TGI: > 100 µM
HCC-2998 colon
  TGI: > 87.2 µM
SW-620 colon
  TGI: > 100 µM

## COc1ccc2nc3cc([N+](=O)[O-])ccc3c(NCCCN(CCO)CCO)c2c1
SF-295 CNS
  GI50: 9000 nM
  TGI: 22.3 µM
UACC-62 melanoma
  GI50: 3340 nM
  TGI: 11.6 µM
PC-3 prostate
  TGI: 20.1 µM
SNB-19 CNS
  GI50: 5.68 µM
  TGI: 18.6 µM
HT29 colon
  GI50: 2030 nM
  TGI: 5.21 µM
HOP-92 NSCLC
  GI50: 4310 nM
  TGI: 11.2 µM
HS 578T breast
  GI50: 4060 nM
  TGI: 12.5 µM
IGROV1 ovarian
  GI50: 2.51 µM
  TGI: 7.13 µM
HCC-2998 colon
  GI50: 2.87 µM
  TGI: 7.88 µM
SW-620 colon
  GI50: 3.15 µM
  TGI: 12.3 µM

## Cc1cc([N+](=O)[O-])ccc1NS(=O)(=O)c1cc(Cl)ccc1Cl
SF-295 CNS
  GI50: 2460 nM
  TGI: 9.26 µM
UACC-62 melanoma
  GI50: 1290 nM
  TGI: 17.9 µM
PC-3 prostate
  GI50: 2730 nM
  TGI: 21.1 µM
SNB-19 CNS
  GI50: 3.4 µM
  TGI: > 100 µM
HT29 colon
  GI50: 3810 nM
  TGI: > 100 µM
HOP-92 NSCLC
  GI50: 666 nM
  TGI: 3.81 µM
HS 578T breast
  GI50: 4230 nM
  TGI: 60.5 µM
IGROV1 ovarian
  GI50: 4.61 µM
  TGI: > 100 µM
HCC-2998 colon
  GI50: 4.28 µM
  TGI: 18 µM
SW-620 colon
  GI50: 4.36 µM
  TGI: > 100 µM

## CC(C)[NH-].CC(C)[NH-].O.O.[Cl][Pt+2][Cl]
SF-295 CNS
  GI50: 42900 nM
  TGI: 149 µM
UACC-62 melanoma
  GI50: 26700 nM
  TGI: 128 µM
PC-3 prostate
  GI50: 90800 nM
  TGI: 298 µM
SNB-19 CNS
  GI50: 70.9 µM
  TGI: 314 µM
HT29 colon
  GI50: 12700 nM
  TGI: 83.8 µM
HOP-92 NSCLC
  GI50: 22300 nM
  TGI: 70.8 µM
HS 578T breast
  GI50: 98800 nM
  TGI: 594 µM
IGROV1 ovarian
  GI50: 33.4 µM
  TGI: 132 µM
HCC-2998 colon
  GI50: 87.9 µM
  TGI: 220 µM
SW-620 colon
  GI50: 23.1 µM
  TGI: 137 µM

## Fc1cccc(CSc2ncnc3c2ncn3C2CCCS2)c1 (configuration not stated)
SF-295 CNS
  TGI: 41.1 µM
UACC-62 melanoma
  TGI: 28.8 µM
PC-3 prostate
  TGI: > 100 µM
SNB-19 CNS
  TGI: > 100 µM
HT29 colon
  TGI: 32.7 µM
HOP-92 NSCLC
  TGI: 67.4 µM
HS 578T breast
  TGI: > 100 µM
IGROV1 ovarian
  TGI: > 100 µM
HCC-2998 colon
  TGI: 42.2 µM
SW-620 colon
  TGI: > 100 µM

## O=C(O)c1ccc2c3c(ncnc13)-c1ccccc1C2=O
SF-295 CNS
  GI50: 2280 nM
  TGI: > 30.6 µM
UACC-62 melanoma
  GI50: 2440 nM
  TGI: 6.11 µM
PC-3 prostate
  GI50: 43300 nM
  TGI: > 100 µM
SNB-19 CNS
  GI50: 3.52 µM
  TGI: > 100 µM
HT29 colon
  GI50: 3450 nM
  TGI: > 28 µM
HOP-92 NSCLC
  GI50: > 100000 nM
  TGI: > 100 µM
HS 578T breast
  GI50: 1190 nM
  TGI: 6.28 µM
IGROV1 ovarian
  GI50: 43.9 µM
  TGI: > 100 µM
HCC-2998 colon
  GI50: 8.52 µM
  TGI: > 100 µM
SW-620 colon
  GI50: 4.78 µM
  TGI: > 100 µM

## Cc1cccc(Cl)c1NC(=O)c1cnc(Nc2cc(N3CCOCC3)cc(N3CCOCC3)c2)s1
SF-295 CNS
  GI50: 154 nM
  TGI: > 10 µM
UACC-62 melanoma
  GI50: 1700 nM
  TGI: > 10 µM
PC-3 prostate
  GI50: 152 nM
  TGI: > 10 µM
SNB-19 CNS
  GI50: > 3.36 µM
  TGI: > 10 µM
HT29 colon
  GI50: 18.1 nM
  TGI: 0.19 µM
HOP-92 NSCLC
  GI50: 2.55 nM
  TGI: 0.031 µM
HS 578T breast
  GI50: 15.1 nM
  TGI: 0.157 µM
IGROV1 ovarian
  GI50: 0.00355 µM
  TGI: 0.0621 µM
HCC-2998 colon
  GI50: > 4.21 µM
  TGI: > 10 µM
SW-620 colon
  GI50: > 6.79 µM
  TGI: > 10 µM

## Cn1c(/C=C(\C#N)c2cccc(C(F)(F)F)c2)nc2c(N3CCOCC3)nc(Cl)nc21
SF-295 CNS
  GI50: 1830 nM
  TGI: 3.93 µM
UACC-62 melanoma
  GI50: 973 nM
  TGI: 2.28 µM
PC-3 prostate
  GI50: 726 nM
  TGI: 2.5 µM
SNB-19 CNS
  GI50: 1.44 µM
  TGI: 2.8 µM
HT29 colon
  GI50: 369 nM
  TGI: 1.38 µM
HOP-92 NSCLC
  GI50: 342 nM
  TGI: 1.89 µM
HS 578T breast
  GI50: 1260 nM
  TGI: 4.38 µM
IGROV1 ovarian
  GI50: 0.556 µM
  TGI: 1.89 µM
HCC-2998 colon
  GI50: 1.67 µM
  TGI: 3.2 µM
SW-620 colon
  GI50: 0.377 µM
  TGI: 1.4 µM
